Measured values from PMC7465886, “4-(N-Alkyl- and -Acyl-amino)-1,2,4-triazole-3-thione Analogs as Metallo-β-Lactamase Inhibitors: Impact of 4-Linker on Potency and Spectrum of Inhibition” (Biomolecules, 2020).

Experiments:
[1] = target: T1, CphA (Aeromonas hydrophila, UniProt P26918); experiment: MBL inhibition, CphA (imipenem hydrolysis); format: biochemical; conditions: read-out: Percentage of Inhibition at 100 μM Inhibitor, CphA
T1 construct: made in house
Description: Compounds were prepared as 10 mM solutions in DMSO before dilution with appropriate buffers. Buffers were 25 mM Hepes pH 7.5 for CphA or 25 mM Hepes pH 7.5, 50 µM ZnCl2 for L1. The rates in the absence of inhibitor were not modified by addition of 1% DMSO. CphA and L1 enzymes, purified as previously described, were used at concentrations between 0.2 and 0.8 nM, respectively. The enzyme and the inhibitor (100 µM) were pre-incubated for 30 min in a volume of 495 µL at room temperature. The hydrolysis of a solution of 100 µM imipenem for CphA was monitored by following the absorbance variation at 300 nm using a Specord 50 PLUS spectrophotometer (Analytik Jena, Jena, Germany). For L1, the reporter substrate was nitrocefin (100 µM). The enzyme activity was measured by following the absorbance variation at 482 nm. The substrate hydrolysis was done at 30 °C. The activity was tested by measuring the initial rates in three samples without inhibitor that allowed to determine the percentage of residual β-lactamase activity in the presence of inhibitors. […] The Hanes linearization of the Henri–Michaelis equation was used, and Ki was calculated on the basis of the following equation, v = (Vmax.S)/[S + Km(1 + I/Ki)]. […]

[2] = target: T2, IMP-1 (Serratia marcescens, UniProt P52699); experiment: MBL inhibition, reporter substrate method, IMP-1; format: biochemical; conditions: read-out: Inhibition of IMP-1 (dash in Ki column)
T2 construct: made in house; host or cells: E. coli BL21(DE3) derivative, pET-9a
T2 sequence (P52699 19-246 limits assumed): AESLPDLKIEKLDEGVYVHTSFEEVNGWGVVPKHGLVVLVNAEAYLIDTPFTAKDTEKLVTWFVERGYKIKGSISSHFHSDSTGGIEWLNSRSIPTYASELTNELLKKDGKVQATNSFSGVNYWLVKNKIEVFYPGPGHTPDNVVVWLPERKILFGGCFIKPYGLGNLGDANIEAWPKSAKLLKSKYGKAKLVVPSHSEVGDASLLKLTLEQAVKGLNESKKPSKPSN
Description: Compounds were prepared in DMSO at a final concentration of 50 mM prior to dilution in the assay buffer. The reaction rate was measured as the variation of absorbance observed upon substrate hydrolysis in a UV-Vis spectrophotometer or microplate reader at a wavelength of 300 nm (imipenem, meropenem), 260 nm (cefotaxime), or 482 nm (nitrocefin) and in the presence of a purified MBL enzyme (such as VIM-1, VIM-2, VIM-4, NDM-1, and IMP-1, at a final concentration ranging from 1 to 70 nM).
These enzymes were overproduced in derivatives of E. coli BL21(DE3) carrying a pET-9 a (IMP-1, VIM-1, VIM-2, and VIM-4) or pET-15 b (NDM-1) vector into which the metallo-β-lactamase-encoding open reading frame was cloned. Bacterial strains were grown in the auto-inducing medium, ZYP-5052, supplemented with 50 μg/mL kanamycin for 24 h at 37 °C [38]. IMP-1, VIM-1, VIM-2, and VIM-4 were purified by ion-exchange and gel filtration chromatography using an AKTA Purifier platform (GE Healthcare, Uppsala, Sweden) as previously described. NDM-1 (residues 37-270) was produced as an amino-terminal 6 xHis-tag fusion protein and was purified using affinity chromatography. After growth for 26 h at 25 °C, bacterial cells were harvested by centrifugation (10,000× g, 30 min, 4 °C), resuspended in 10 mM HEPES buffer (pH 7.5) containing 0.15 M NaCl (buffer A) in one-fifth of the original culture volume, and lysed by sonication. Cellular debris was removed by centrifugation (12,000× g, 40 min, 4 °C). The clarified sample was loaded on a HisTrap HP column (bed volume, 5 mL; GE Healthcare), followed by a wash step (25 mL) with buffer A containing 20 mM imidazole. Proteins were eluted using buffer A containing 350 mM imidazole. The resulting protein sample was desalted (HiPrep 26/10 Desalting column, GE Healthcare) using 20 mM triethanolamine (pH 7.2) supplemented with 50 μM ZnSO4 and concentrated using an Amicon Ultra-15 (MW cut-off, 10 kDa; Millipore, Burlington, MA, USA). The concentrated sample was loaded on a Superdex 75 prep grade column (XK16/100 column; bed volume, 140 mL; GE Healthcare) and the proteins eluted with buffer A containing 50 μM ZnSO4. The active fractions were pooled and stored at −20 °C. The purity of the protein preparations was estimated >95% by SDS-PAGE analysis. The authenticity of the enzyme preparations was confirmed by electron spray ionization mass spectrometry, as previously described.
The inhibition constants (Ki) were determined on the basis of a model of competitive inhibition by analyzing the dependence of the ratio v0/vi (v0, hydrolysis velocity in the absence of inhibitor; vi, hydrolysis velocity in the presence of inhibitor) as a function of [I] as already described. The slope of the plot of v0/vi vs. [I], which corresponds to Km^S/(Km^S + [S])Ki (where Km^S is the Km value of the reporter substrate and [S] its concentration in the reaction mixture) and allowed the calculation of the Ki value. Alternatively, a Dixon plot analysis was carried out by measuring the initial hydrolysis rates in the presence of variable concentrations of inhibitor and substrate. This allowed Ki values to be determined and supported the hypothesis that the various compounds behaved as competitive inhibitors of the various tested enzymes. The assays were performed in triplicate.

T1 sequence (P26918 28-254): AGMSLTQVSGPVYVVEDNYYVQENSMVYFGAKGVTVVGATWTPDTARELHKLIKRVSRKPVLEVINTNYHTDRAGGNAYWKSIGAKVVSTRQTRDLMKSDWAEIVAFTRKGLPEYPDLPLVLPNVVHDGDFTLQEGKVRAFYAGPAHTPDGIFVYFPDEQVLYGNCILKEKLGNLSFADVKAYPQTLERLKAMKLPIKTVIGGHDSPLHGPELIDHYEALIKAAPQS

O=C(O)c1ccccc1CNn1c(-c2ccccc2)n[nH]c1=S [Compound 1]
inhibition at 100 µM [1]: 60% | inhibition at 100 µM [2]: < 40%
